Entries after “also recorded” stand apart in the source; their conditions may differ.
How the values were obtained:
[1] = tested on: ALuc16; test: Metal cation-driven variance of bioluminescence spectra of ALuc16; type: biochemical; settings: 100 μg/mL cation
Method: The corresponding bioluminescence spectra (FIG. 6(B)) were also measured using the same method as that of FIG. 6(A). In a 200 μL PCR tube, 50 μL of the mixture of ALuc16 and a metal cation (Ca(II), Fe(III), Ni(II), Zn(II), Mg(II), or Cr(VI); concentration: 100 μg/mL) in the metal-cation-free Tris-HCl buffer (Solution A) was further mixed with 10 μL of an nCTZ solution (Solution B). The tube was immediately moved into the chamber of a precision spectrophotometer (AB-1850, ATTO) (FIG. 6(B)), and the consequent spectra were taken in an integration of 30 seconds.

[2] = tested on: ALuc16; test: Cation-driven long-term stability of optical intensities of ALuc16; type: biochemical
Method: The long-term stability of optical intensities was estimated by the same method as that of FIG. 6(A) (FIG. 8(A)). The microplate was placed in the chamber of LAS-4000, and the optical intensities were monitored every 5 minutes, after substrate injection, for a duration of 60 minutes.

[3] = tested on: molecular strain sensor; test: Metal ion effects on luminescence of the purified molecular strain sensor; type: biochemical; settings: within 1 minute after substrate addition
Method: For this experiment, the concentration of the purified molecular strain sensor was adjusted to 0.1 mg/mL by dilution in a Tris-HCl buffer (pH 8.2). Rapamycin was added to the molecular strain sensor and the final concentration was adjusted to […]. After that, the resultant was diluted with metal ion-containing Tris-HCl buffer (pH 8.2) to make a 0.01 mg/mL molecular strain sensor solution. At this time, the final concentration of the metal ion added was 10 μg/mL. The solution was transferred to a 96-well microplate, and, while the substrate solution was added from a microinjector, luminescence intensities were measured with or without a metal ion.
The luminescence stability of the luminescent probe dependent on different metal ion concentrations was studied by a similar technique (FIG. 23). The substrate solution was added from a microinjector in the same manner as above, and then changes in luminescence intensity over 1 minute were measured.

[4] = tested on: Fridericia luciferase; settings: cited from earlier work
[5] = tested on: ALuc16; test: Metal cation-driven optical intensities of ALuc16 (purified enzyme); type: biochemical
Method: The metal cation-driven optical properties were estimated with ALuc16 (FIG. 6). A metal cation-free sample of ALuc16 was prepared beforehand as follows: we first generated a DNA construct of ALuc16 carrying a Strep-II tag at the C-terminus via PCR. The construct was then cloned into a pOPTHM vector (providing a cleavable N-terminal His6-MBP tag), and expressed in the bacterial strain Shuffle T7 Express (New England Biolabs) with 0.3 mM IPTG induction. […] The lysate was centrifuged at 18,000 rpm for 40 minutes, and then the supernatant was passed over a 5 mL HisTrap HP column (GE Healthcare). […] The eluted sample was dialyzed to a metal-cation-free Tris-HCl buffer (0.05 M, pH 8.2) at 4° C. for 24 hours, and finally adjusted to a concentration of 1 mg/ml by dilution. […] Meanwhile, the corresponding substrate solution carrying nCTZ (Promega) was diluted 100-fold with the cation-free Tris-HCl buffer (Solution B). 50 μL of Solution B was simultaneously injected into Solution A in the 96-well plate with a multichannel micropipette (Gilson). The microplate was immediately moved to an image analyzer (LAS-4000, FujiFilm) equipped with a cooled charge-coupled device (CCD) camera, and the optical intensities were simultaneously estimated in a precision mode. The measurements were conducted in triplicate (n=3). The optical images were analyzed with Multi Gauge V3.2 (FujiFilm). […] The experiment was conducted by the same method as that of FIG. 6. In the inset, the optical image taken with LAS-4000 (FujiFilm) is shown.

[6] = tested on: ALuc16; test: Circular dichroism (CD) measurement of metal cation-mixed ALuc16
Method: Circular dichroism (CD) measurement was further conducted for reasoning the cation-driven degradation of ALuc16 activities (FIG. 9). Samples were prepared by mixing varying concentrations of Pb(II) or Al(III) with column-purified and dialyzed ALuc16, and were measured with a CD spectrometer (JASCO, Japan) after preparation.

[7] = Luminescence activity of novel artificial bioluminescent enzymes (COS-7 cell lysate); type: biochemical, African green monkey; settings: COS-7 lysate, native coelenterazine
Method: African green monkey kidney-derived COS-7 cells were cultured using a 96-well microplate. The COS-7 cells were grown until occupying 90% of the bottom-surface area of the culture plate, and, as shown in FIG. 19 and FIG. 20, were each transiently transfected with a pcDNA 3.1(+) vector (Invitrogen) encoding each luminescent enzyme with a lipofection reagent (TransIT-LT1, Mirus). After that, the cells were further cultured for about 1 day. After the culture, cell lysates were prepared using a cell lysis agent (Lysis buffer, Promega), and 5 μL each of the cell lysates was taken from each well and transferred to a 96-well microplate for measurement. An assay buffer (50 μL) containing native coelenterazine was simultaneously added to each well using a multichannel pipette. Immediately after the addition of the assay buffer, the microplate was moved into the black box of an image analyzer (LAS-4000, FujiFilm), and luminescence images were measured with a CCD camera (FIG. 19 and FIG. 20).

[8] = Enzymatic activity confirmation: temporal stability in luminescence; type: biochemical, African monkey; settings: compared to existing ALuc or conventional copepod luciferases
Method: The enzymatic activity of ALuc may be examined according to the following method. First, using a known lipid reagent for gene introduction, an expression vector encoding ALuc is introduced into African monkey-derived COS-7 cells. As a control, an expression vector having a known GLuc without any mutation is also introduced into the cells in the same manner. At a predetermined time (from 10 hours to 20 hours, for example, 16 hours) after the introduction of the vector, a cell lysate is prepared using a known cell lysis reagent.
After that, the cell lysate is mixed with a known substrate solution containing coelenterazine, and its color intensity, temporal stability in luminescence, and the like are measured.
The luminescence intensity may be found by measuring the intensity at a specific wavelength using a conventional luminescence spectrophotometer after addition of a known substrate. By performing the measurement every minute, the temporal stability in luminescence can be evaluated based on the temporal change in luminescence. In order to measure a shift to a longer wavelength, scanning of the entire wavelength is required.

[Ca+2].[Cl-].[Cl-] [Ca(II)]
blue shift of the bioluminescence spectrum [1]: 2 nm
effect on long-term stability of bioluminescence intensities ([2]; 60 minutes after substrate injection): prolonged the bioluminescence intensities in a concentration-dependent manner
optical intensity retained ([2]; after 60 minutes): 4%
initial optical intensity sustained ([2]; for 13 minutes after nCTZ injection): 60%
effect of increasing concentration on overall luminescence intensity [3]: reduces an overall luminescence intensity
effect of increasing concentration on S/N ratio ([3]; with/without rapamycin): improves an S/N ratio
effect on activities of Fridericia luciferase [4]: elevate

[Cl][Pb][Cl] [Pb(II)]
concentration by which the optical intensity was quickly decreased ([5]; Tris-HCl, pH 8.2): 1 µg/mL
detection limit ([5]; dose-response of ALuc16 activities): around 0.4 μg/mL
effect on optical intensities (activities) of ALuc16 ([5]; metal cation-free Tris-HCl buffer (pH 8.2, 0.05 M), nCTZ): suppress; also recorded: quickly inhibited
levels that showed basal noise CD spectra [6]: higher than 1 μg/mL
effect on structure of ALuc16 (CD spectra, 222 nm) ([6]; varying cation concentrations): destroy the tertiary structure of ALuc16; also recorded: the structure of ALuc16 is denatured

[Cl][Ni][Cl] [Ni(II)]
red shift of the bioluminescence spectrum [1]: 4 nm

B1: ALuc45: artificial luciferase, SEQ ID NO: 5 (protein)
chain: MMGIKVLFALVCLALVQAKPTEDEDEDDIVDVVGNFWAIGVDNDRDFTISADRGKLPGKKLPKEVLIEIEANAKKAGCTRGCLICLSKIKCTAKMKKWLPGRCHSYEGDKDTGQGGIGEPIVDAPEIPGFKDLTPMEQFIAQVDLCADCTTGCLKGLANVKCSALLKKWLPDRCASFADKIQKEVDNIKGLAGS
luminescence intensities as compared to conventional ALucs (e.g., ALuc16 and ALuc30) [7]: even stronger luminescence intensities
luminescence stability [8]: remarkably stable luminescence signal
